# Test results: patent US12595231B2 (priority 2022, dated 2026)
# Like-named read-outs stand apart in the source and are kept apart here.
# Columns and labels:
# [1] = primary salt formation assessment: storage at 40° C./75% RH for ca. 24 h, XRPD; type: physicochemical; conditions: solids stored at 40° C./75% RH for ca. 24 h
# Description: Solids were dried at 40° C. under vacuum for ca. 24 h, and then re-analysed by XRPD.
# Solids were then stored at 40° C./75% RH for ca. 24 h, and then re-analysed by XRPD.
# [2] = primary salt formation assessment: solution degradation (HPLC of mother liquor); type: physicochemical; conditions: salt formation experiment
# Description: HPLC analysis was carried out to determine the chemical purity of the mesembrine and to provide information on any impurities. The following conditions were use: • Column: Waters Acquity BEH 018 1.7 μm 150 mm×2.1 mm • Column Temperature: 33° C. • Autosampler Temperature: 25° C. • UV Wavelength: 280 nm • Injection Volume: 5 μL • Flow Rate: 0.29 mL/min • Mobile Phase A: 0.1% NH4 in H2O • Mobile Phase B: Methanol:Water 20:80% v/v • Gradient Program: […]
# The experiments were then temperature cycled between the upper temperature limit (specified in Table 3.1) and 5° C. at 0.1° C./min, with 1 h holds at the upper temperature limit, and 5° C. for ca. 72 h.
# After temperature cycling, solids were isolated from experiments at 5° C., and analysed by XRPD.
# [3] = solvent miscibility/solubility of mesembrine (Example 2); type: physicochemical
# Description: After dissolution 278 μL of the solution was aliquoted into pre-tared vials, and the solvent allowed to evaporate at ambient conditions for 1 h. The vials were then dried at 20° C. under vacuum for ca. 22 h. After drying, the vials were back-weighed to determine the mass of mesembrine in each vial.
# The miscibility study was carried out by adding aliquots of the desired solvent system to each vial. The following aliquot sizes were used: Aliquot numbers 1-10-20 μL; 11-16-50 μL; 17-19-200 μL; 20-750 μL.
# In between additions the experiment was heated to 40° C. for ca. 5 minutes to facilitate miscibility/solubility. Additions were continued until miscibility was observed, or ca. 100 volumes (2 mL) had been added.
# [4] = blood:plasma and blood:brain ratios in satellite animals; type: in vivo, male C57Bl/6J mice; conditions: satellite mice, 10 mg/kg i.p., t=0.25 h
# Description: Groups of 18 male C57Bl/6J mice (weighing between 20 and 30 g) received a single administration of test compound (10 mg/kg; i.p.) in methylcellulose (0.5% w/v) at a nominal concentration of […].
# [5] = male C57Bl/6J mice, 10 mg/kg i.p.
# [6] = cited from earlier work
# [7] = type: physicochemical
# Description: Approximately 20 mg of each salt was weighed into 3×2 mL push cap vials. 0.1 mL of buffer (Chloride pH 1.2; Acetate pH 4.5; Phosphate pH 6.8) was added to each vial, at 25° C. The experiment was stirred for ca. 24 h. After 2 h, the pH was measured and adjusted if required. After 24 h a final pH measurement was taken. Any slurries were centrifuged and the solids analysed by XRPD.
# [8] = DVS analysis (water uptake); type: physicochemical; conditions: 80% RH, 25° C.; listed as fumarate salt Pattern 4
# 1-week stability study = type: physicochemical; conditions: for Observation: Sigma Aldrich colour chart
# Description: A 1-week stability study was performed for hydrochloride salt Pattern 1, besylate salt Pattern 1, fumarate salt Pattern 1+4, and fumarate salt Pattern 4.
# Approximately 5 mg of the salt was weighed into 3×2 mL push cap vials. The 2 mL vials were then each placed inside a 20 mL vial, with the lids on or off as required. The solids were placed under the required stability conditions for 1 week at the following three conditions: 40° C./75% RH (open); 80° C. (closed); Ambient light, temperature and humidity (open)
# After 1-week, visual observations were noted, then the solids were analysed by XRPD and HPLC.
# [9] = solubility screen of amorphous besylate salt; type: physicochemical
# Description: The amorphous besylate salt prepared in Example 8 was used in a solubility screen as follows:
# Known volume aliquots of solvent system were added to each vial, with heating at 40° C. between each addition for ca. 5 minutes. Addition of solvents was continued until either dissolution was observed, or until 100 volumes (ca. 1 mL) had been added.
# After the solvent addition was complete, the experiments were stirred at 40° C. for ca. 16 h. […] The solids were isolated by centrifuge filtration and were analysed by XRPD.
# Any solids isolated were analysed by XRPD.
# [10] = Ambient light, temperature and humidity, 1 week
smiles,measurement,setting,value
"COc1ccc(C23CCC(=O)CC2N(C)CC3)cc1OC.O=C(O)C(O)C(O)C(=O)O (stereo not shown) [Tartrate Pattern 1, mesembrine tartrate]",physical stability at 40° C./75% RH (Comments),[1],Deliquescence
same,solution degradation (Comments),[2],degradation
"COc1ccc(C23CCC(=O)CC2N(C)CC3)cc1OC.O=P(O)(O)O (stereo not shown) [Phosphate Pattern 1, mesembrine phosphate]",solution degradation (Comments),[2],degradation
"COc1ccc(C23CCC(=O)CC2N(C)CC3)cc1OC (stereo not shown) [mesembrine, 3a-(3,4-dimethoxyphenyl)-octahydro-1-methy-6H-indol-6-one]",Miscibility,"[3]; 1,4-Dioxane",>850 mg/mL
same,Miscibility,[3]; 2-Methyl THF,>845 mg/mL
same,Miscibility,[3]; 2-Propanol (IPA),>870 mg/mL
same,Miscibility,[3]; 2-Propanol:Water (50:50),>870 mg/mL
same,Miscibility,[3]; Acetone,>890 mg/mL
same,Miscibility,[3]; Acetonitrile,>855 mg/mL
same,Miscibility,[3]; DMSO,>288 mg/mL
same,Miscibility,[3]; Ethanol,>630 mg/mL
same,Miscibility,[3]; Ethyl acetate,>445 mg/mL
same,Miscibility,[3]; Heptane,<9 mg/mL
same,Miscibility,[3]; Isopropyl acetate,>900 mg/mL
same,Miscibility,[3]; Methanol,>455 mg/mL
same,Miscibility,[3]; Methylethyl Ketone (MEK),>915 mg/mL
same,Miscibility,[3]; N-Methyl-2-pyrrolidone (NMP),>450 mg/mL
same,Miscibility,[3]; Tert-butyl methyl ether,>465 mg/mL
same,Miscibility,[3]; Tetrahydrofuran (THF),>381 mg/mL
same,Miscibility,[3]; Toluene,>455 mg/mL
same,Miscibility,[3]; Water,<9 mg/mL
same,Brain concentration,[4],1292 ng/g
same,Plasma concentration,[4],317 ng/mL
same,AUC0-inf,[5]; plasma,290 ng·h/mL
same,Cmax,[5]; plasma,400 ng/mL
same,Tmax,[5]; plasma,15 min
same,half-life,[5]; plasma,27.2 min
same,t1/2,[5]; plasma,27.2 min
same,Solubility,[6]; Ethanol,10000 µg/mL
same,Solubility,[6]; Water,low solubility
same,Solubility,[6]; chloroform,10000 µg/mL
"COc1ccc(C23CCC(=O)CC2N(C)CC3)cc1OC.O=C(O)/C=C/C(=O)O (stereo not shown) [Fumarate Pattern 1, mesembrine fumarate]",physical stability at 40° C./75% RH (Comments),[1],Physically stable
same,HPLC Conc.,"[7]; Target pH 1.2 (chloride buffer), 25° C., 24 h, with respect to mesembrine",29.44 mg/mL
same,Observation,"[7]; Target pH 6.8, ca. 20 mg in 0.1 mL buffer",Oiling
"COc1ccc(C23CCC(=O)CC2N(C)CC3)cc1OC.O=C(O)CCC(=O)O (stereo not shown) [Succinate Pattern 1, mesembrine succinate]",solution degradation (Comments),[2],degradation
"COc1ccc(C23CCC(=O)CC2N(C)CC3)cc1OC.O=C(O)C=CC(=O)O (stereo not shown) [Fumarate Pattern 4, mesembrine fumarate]",DVS water uptake,[8],0.5 wt %
same,HPLC,"1-week stability study; 40° C./75% RH (open), 1 week",96.4 % area
same,XRPD (pattern number),"1-week stability study; 40° C./75% RH (open), 1 week","4,"
same,Observation,"1-week stability study; 40° C./75% RH (open), 1 week",Faint beige solids (BE10)
same,HPLC,"1-week stability study; 80° C. (closed), 1 week",96.4 % area
same,XRPD (pattern number),"1-week stability study; 80° C. (closed), 1 week","4,"
same,Observation,"1-week stability study; 80° C. (closed), 1 week",Faint beige solids (BE10)
same,HPLC,1-week stability study; [10],96.4 % area
same,XRPD (pattern number),1-week stability study; [10],"4,"
same,Observation,1-week stability study; [10],Faint beige solids (BE10)
same,HPLC,1-week stability study; Input,95.9 % area
same,XRPD (pattern number),1-week stability study; Input,"4,"
"COc1ccc(C23CCC(=O)CC2N(C)CC3)cc1OC.O=S(=O)(O)c1ccccc1 (stereo not shown) [amorphous besylate salt, mesembrine besylate]",Solubility,"[9]; 1,4-Dioxane",<10000 µg/mL
same,Solubility,[9]; 1-Butanol,<10000 µg/mL
same,Solubility,[9]; 1-Propanol,ca.31 mg/mL
same,Solubility,[9]; 2-Ethoxyethanol,ca.44 mg/mL
same,Solubility,[9]; 2-Methyl THF,<10000 µg/mL
same,Solubility,[9]; 2-Propanol,<10000 µg/mL
same,Solubility,[9]; 2-Propanol:Water (50:50),>500000 µg/mL
same,Solubility,[9]; 2-Propanol:Water (75:25),ca.167 mg/mL
same,Solubility,[9]; Acetone,<10000 µg/mL
same,Solubility,[9]; Acetone:Water (90:10),>500000 µg/mL
same,Solubility,[9]; Acetonitrile,>500000 µg/mL
same,Solubility,[9]; Anisole,<10000 µg/mL
same,Solubility,[9]; Butyl Acetate,<10000 µg/mL
same,Solubility,[9]; Dichloromethane (DCM),ca.250 mg/mL
same,Solubility,[9]; Diisopropyl ether,<10000 µg/mL
same,Solubility,[9]; Dimethylsulfoxide (DMSO),>500000 µg/mL
same,Solubility,[9]; Ethanol,ca.44 mg/mL
same,Solubility,[9]; Ethanol:Water (50:50),>500000 µg/mL
same,Solubility,[9]; Ethanol:Water (90:10),>500000 µg/mL
same,Solubility,[9]; Ethyl acetate,<10000 µg/mL
same,Solubility,[9]; Heptane,<10000 µg/mL
same,Solubility,[9]; Isopropyl acetate,<10000 µg/mL
same,Solubility,[9]; Methanol,>500000 µg/mL
same,Solubility,[9]; Methylethyl Ketone (MEK),<10000 µg/mL
same,Solubility,[9]; Methylisobutyl Ketone (MiBK),<10000 µg/mL
same,Solubility,"[9]; N,N-Dimethylacetamide (DMA)",>500000 µg/mL
same,Solubility,"[9]; N,N-Dimethylformamide (DMF)",ca.250 mg/mL
same,Solubility,[9]; N-Methylpyrrolidone (NMP),>500000 µg/mL
same,Solubility,[9]; Tetrahydrofuran (THF),<10000 µg/mL
same,Solubility,[9]; Toluene,<10000 µg/mL
same,Solubility,[9]; Water,>500000 µg/mL
same,Solubility,[9]; tert-Butylmethyl Ether (tBME),<10000 µg/mL
same,Brain concentration,[4],814 ng/g
same,Plasma concentration,[4],417 ng/mL
same,AUC greater than that produced by the mesembrine free base,[5],over 100 ng·hr/mL
same,difference in half-life versus the free base,[5],~10 min
same,AUC0-inf,[5]; plasma,392 ng·h/mL
same,Cmax,[5]; plasma,451 ng/mL
same,Tmax,[5]; plasma,15 min
same,half-life,[5]; plasma,36.9 min
"COc1ccc(C23CCC(=O)CC2N(C)CC3)cc1OC.O=C(O)/C=C/C(=O)O (stereo not shown) [Fumarate Pattern 2, mesembrine fumarate]",solution degradation (Comments),[2],degradation
